# From patent US11535607B2, “Isoindolines as HDAC inhibitors” (Valo Health, Inc., priority 2018, dated 2022)
# Like-named read-outs stand apart in the source and are kept apart here.
# Tests used:
# full-length human HDAC11 [1] = target: T1, full-length human HDAC11 (Homo sapiens (Human), UniProt Q96DB2); assay: HDAC11 deacetylase electrophoretic mobility shift assay (Nanosyn); assay type: biochemical; settings: for HDAC11 potency, in words: comparison with parent or lead compound; for IC50: mobility shift assay
# T1 sequence (Q96DB2 whole entry): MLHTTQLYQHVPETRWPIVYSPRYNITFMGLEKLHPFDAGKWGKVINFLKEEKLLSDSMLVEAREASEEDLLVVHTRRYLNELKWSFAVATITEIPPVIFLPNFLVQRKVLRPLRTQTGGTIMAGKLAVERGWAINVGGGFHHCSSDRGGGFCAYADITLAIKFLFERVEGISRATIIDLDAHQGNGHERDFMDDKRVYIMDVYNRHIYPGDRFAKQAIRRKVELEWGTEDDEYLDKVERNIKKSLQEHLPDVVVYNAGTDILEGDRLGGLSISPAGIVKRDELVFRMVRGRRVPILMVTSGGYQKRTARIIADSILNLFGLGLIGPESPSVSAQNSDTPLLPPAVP
# Description: The measurement of HD AC 11 deacetylase activity was performed using an electrophoretic mobility shift assay by Nanosyn (Santa Clara, Calif.). Full length human recombinant HD AC 11 protein was expressed in baculoviral system and purified by affinity chromatography. The enzymatic reactions were assembled in 384 well plates in a total volume of 25 μL in a reaction buffer composing: 100 mM HEPES, pH 7.5, 25 mM KCl, 0.1% bovine serum albumin, 0.01% Triton X-100, 1% DMSO (from compounds), 2 μM of the fluorescently labeled peptide substrate and enzyme. The enzyme was added at a final concentration of 10 nM. The peptide substrate FAM-RHKK(tri-fluor-Ac)—NH2 was used. The compounds were tested at 12 concentrations spaced by 3× dilution intervals. Negative control samples (0%-inhibition in the absence of inhibitor) and positive control samples (100%-inhibition) were assembled in replicates of four in each assay plate. The reactions were incubated at 25° C. and quenched by the addition of 45 μL of termination buffer (100 mM HEPES, pH 7.5, 0.01% Triton X-100, 0.05% SDS).
# The terminated assay plates were analyzed on LabChip® 3000 microfluidic electrophoresis instrument (Perkin Elmer/Caliper Life Sciences). The fluorescence intensity of the electrophoretically separated de-acetylated product and substrate peptide was measured. Activity in each sample was determined as the product to sum ratio (PSR): P/(S+P), where P is the peak height of the product peptide and S is the peak height of the substrate peptide. Percent inhibition (Pinh) is determined using the following equation: Pinh=(PSR0%−PSRinh)/(PSR0%−PSR100%)*100, where PSRinh, is the product sum ratio in the presence of inhibitor, PSR0% is the average product sum ration in the absence of inhibitor and PSR100% is the average product sum ratio in 100%-inhibition control samples. The IC50 values of inhibitors were determined by fitting the percent inhibition curves with 4 parameter dose-response model using XLfit 4 software.
# HDAC6 = HDAC6 (Homo sapiens (Human), UniProt Q9UBN7); assay: HDAC6 electrophoretic mobility shift assay; assay type: biochemical; settings: for IC50: mobility shift assay
# Sequence of HDAC6 (Q9UBN7 whole entry, species assumed): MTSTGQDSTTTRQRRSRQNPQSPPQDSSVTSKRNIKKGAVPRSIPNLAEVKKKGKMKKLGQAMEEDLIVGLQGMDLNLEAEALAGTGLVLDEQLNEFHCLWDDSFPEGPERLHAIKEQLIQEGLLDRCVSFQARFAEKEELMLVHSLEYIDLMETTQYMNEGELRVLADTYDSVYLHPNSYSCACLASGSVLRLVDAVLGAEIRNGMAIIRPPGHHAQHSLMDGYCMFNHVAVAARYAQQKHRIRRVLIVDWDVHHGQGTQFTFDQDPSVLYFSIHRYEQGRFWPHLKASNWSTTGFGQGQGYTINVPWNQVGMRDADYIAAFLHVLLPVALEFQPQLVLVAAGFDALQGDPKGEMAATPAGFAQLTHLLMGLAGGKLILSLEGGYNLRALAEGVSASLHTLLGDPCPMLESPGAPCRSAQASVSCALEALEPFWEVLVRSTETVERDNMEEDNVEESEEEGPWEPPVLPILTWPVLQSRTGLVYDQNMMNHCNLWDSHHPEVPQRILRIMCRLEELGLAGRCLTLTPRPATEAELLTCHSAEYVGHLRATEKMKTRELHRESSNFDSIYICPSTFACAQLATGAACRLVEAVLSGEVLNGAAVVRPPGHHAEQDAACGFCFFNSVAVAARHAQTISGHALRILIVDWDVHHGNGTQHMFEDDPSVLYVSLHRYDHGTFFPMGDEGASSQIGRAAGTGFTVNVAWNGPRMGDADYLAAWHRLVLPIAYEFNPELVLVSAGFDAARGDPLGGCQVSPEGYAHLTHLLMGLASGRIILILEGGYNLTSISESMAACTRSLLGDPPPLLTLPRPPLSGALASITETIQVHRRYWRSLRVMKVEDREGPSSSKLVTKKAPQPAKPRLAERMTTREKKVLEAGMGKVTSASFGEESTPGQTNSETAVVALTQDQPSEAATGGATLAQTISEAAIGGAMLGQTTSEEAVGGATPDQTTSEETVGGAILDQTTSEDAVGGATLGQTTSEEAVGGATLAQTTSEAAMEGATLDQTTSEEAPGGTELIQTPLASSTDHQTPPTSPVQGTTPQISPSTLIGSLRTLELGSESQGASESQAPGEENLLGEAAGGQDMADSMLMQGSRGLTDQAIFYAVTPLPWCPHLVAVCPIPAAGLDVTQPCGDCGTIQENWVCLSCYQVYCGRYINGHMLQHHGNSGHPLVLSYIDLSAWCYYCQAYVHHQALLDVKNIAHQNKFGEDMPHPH
# [2] = In vitro intrinsic clearance after incubation with mouse liver microsomes; assay type: in vitro ADME; settings: for microsomal stability, in words: comparison
# HDAC11 = HDAC11 (Homo sapiens (Human), UniProt Q96DB2); assay: Lipophilic efficiency (pIC50 HDAC11 - clogD7.4)
# Sequence of HDAC11 (Q96DB2 whole entry): as the sequence (Q96DB2 whole entry) above
# full-length human HDAC11 [3] = target: T1, full-length human HDAC11; assay: Probe binding HDAC11 time resolved fluorescence (TRF) assay; settings: Table 2, read-out: HDAC11 IC50 Range
# Description: The probe binding HDAC11 assay was performed using a time resolved fluorescence (TRF) assay format. Recombinant N-terminal GST tag full-length human HD AC 11 was expressed and purified from baculovirus in Sf9 insect cells (SignalChem, #H93-30G-1000). […] 4 μL of 2× probe and 2× anti-GST Terbium (Cisbio, #61GSTXLB) was added to assay plates followed by 4 μL of 2×HDAC11.
# Data from HD AC 11 Assays were reported as percent inhibition (inh) compared with control wells based on the following equation: % inh=1−((FLU−AveLow)/(AveHigh−AveLow)) where FLU=measured time resolved fluorescence. AveLow=average time resolved fluorescence of no enzyme control (n=32). AveHigh=average time resolved fluorescence of DMSO control (n=32). IC50 values were determined by curve fitting of the standard 4 parameter logistic fitting algorithm included in the Activity Base software package: IDBS XE Designer Model205. Data is fitted using the Levenburg Marquardt algorithm.
# [4] = Kinetic solubility at pH 7.4; assay type: physicochemical; settings: aqueous buffer, kinetic from dmso stock
# [5] = Table 3, mean of at least two runs, read-out: HDAC 11 IC50
# [6] = Table 3, mean of at least two runs, read-out: HDAC 6 IC50
# [7] = pIC50 HDAC11 - clogD7.4, Table 4
# [8] = pIC50 HDAC11 - clogD7.4, Table 5
# [9] = pIC50 HDAC11 - clogD7.4, Table 6
smiles,measurement,setting,value
O=C(NO)c1cccc2c1CCN(c1nc3ccccc3[nH]1)C2 [Compound 50-2],"HDAC11 potency, in words",full-length human HDAC11 [1],only modest HDAC11 activity
same,IC50,full-length human HDAC11 [1]; [5],510 to 2000 nM
same,IC50,"full-length human HDAC11 [1]; Table 4, read-out: HDAC11 IC50",> 1000 nM
same,IC50,HDAC6; [6],> 2000 nM
same,IC50,"HDAC6; Table 4, read-out: HDAC6 IC50",> 1000 nM
same,"HDAC6 potency, in words",HDAC6; text comparison with lead 50-4,no significant HDAC6 potency
same,microsomal CLint,"[2]; Table 4, read-out: m-CL-int",< 50 µL/min/mg
same,LipE,HDAC11; [7],+ (indicates LipE≤5.5)
"Cl.O=C(NO)c1cccc2c1CN(c1nc3c([nH]1)CCCC3)C2 [Compound 1-4, N-hydroxy-2-(4,5,6,7-tetrahydro-1H-benzo[d]imidazol-2-yl)isoindoline-4-carboxamide hydrochloride]",IC50,full-length human HDAC11 [3],> 1000 nM
same,"HDAC11 potency, in words",full-length human HDAC11 [1],loss of potency
same,IC50,"full-length human HDAC11 [1]; Table 5, read-out: HDAC11 IC50",> 1000 nM
same,microsomal CLint,[2]; Table 5,> 100 µL/min/mg
same,"microsomal stability, in words",[2],loss of potency and microsomal stability
same,LipE,HDAC11; [8],++ (indicates 5.5<LipE≤6.5)
"CC1(C)c2cccc(C(=O)NO)c2CN1c1nc2cc(C(F)(F)F)ccc2o1 [Compound 18-1, N-hydroxy-1,1-dimethyl-2-[5-(trifluoromethyl)-1,3-benzoxazol-2-yl]-2,3-dihydro-1H-isoindole-4-carboxamide]",IC50,full-length human HDAC11 [3],< 500 nM
same,IC50,"full-length human HDAC11 [1]; Table 6, read-out: HDAC11 IC50",< 500 nM
same,microsomal CLint,[2]; Table 6,< 50 µL/min/mg
same,LipE,HDAC11; [9],++ (indicates 5.5<LipE≤6.5)
same,solubility,[4],≤ 30 µM
"O=C(NO)c1cccc2c1CN(c1nc3ccccc3[nH]1)C2 [Compound 1-6, 2-(1H-benzo[d]imidazol-2-yl)-N-hydroxyisoindoline-4-carboxamide]",IC50,"HDAC6; Table 4, read-out: HDAC6 IC50",> 1000 nM
same,microsomal CLint,"[2]; Table 4, read-out: m-CL-int",< 50 µL/min/mg
same,m-CLint,[2]; Table 5,+++ (indicates a m-CLint below 50 μL/min/mg)
same,"microsomal stability, in words",[2],significant microsomal stability
O=C(NO)c1cccc2c1CCN(c1nc3ccccc3[nH]1)CC2 [Compound 50-3],IC50,"full-length human HDAC11 [1]; Table 4, read-out: HDAC11 IC50",< 500 nM
same,increase in potency against HDAC11,full-length human HDAC11 [1]; relative to the tetrahydroisoquinoline core,> 10 fold
same,IC50,"HDAC6; Table 4, read-out: HDAC6 IC50",> 1000 nM
same,microsomal CLint,"[2]; Table 4, read-out: m-CL-int",> 100 µL/min/mg
same,LipE,HDAC11; [7],+ (indicates LipE≤5.5)
"Cl.O=C(NO)c1cccc2c1CN(c1ccc3ccccc3n1)C2 [Compound 7-2, N-hydroxy-2-(quinolin-2-yl)isoindoline-4-carboxamide hydrochloride]",IC50,full-length human HDAC11 [3],< 500 nM
same,"HDAC11 potency, in words",full-length human HDAC11 [1],improved potency
same,IC50,"full-length human HDAC11 [1]; Table 5, read-out: HDAC11 IC50",< 500 nM
same,microsomal CLint,[2]; Table 5,51 to 100 µL/min/mg
same,"microsomal stability, in words",[2],significant loss of microsomal stability
same,LipE,HDAC11; [8],+ (indicates LipE≤5.5)
"CC1(C)c2cccc(C(=O)NO)c2CN1c1nc2ccc(C(F)(F)F)cc2[nH]1 [Compound 17-1, N-hydroxy-1,1-dimethyl-2-(6-(trifluoromethyl)-1H-benzo[d]imidazol-2-yl)isoindoline-4-carboxamide]",IC50,full-length human HDAC11 [3],< 500 nM
same,"HDAC11 potency, in words",full-length human HDAC11 [1],retained the potency
same,IC50,"full-length human HDAC11 [1]; Table 6, read-out: HDAC11 IC50",< 500 nM
same,microsomal CLint,[2]; Table 6,< 50 µL/min/mg
same,"microsomal stability, in words",[2],significant increase in stability
same,LipE,HDAC11; [9],++ (indicates 5.5<LipE≤6.5)
same,solubility,[4],30 to 55 µM
O=C(NO)c1cccc2c1CN(c1nc3ccccc3[nH]1)CC2 [Compound 50-6],IC50,full-length human HDAC11 [1]; [5],> 2000 nM
same,loss in activity vs. HDAC11,full-length human HDAC11 [1]; relative to initial lead 50-4,2 fold
same,IC50,HDAC6; [6],< 500 nM
same,loss in potency vs. HDAC6,HDAC6; relative to initial lead 50-4,20 fold
O=C(NO)c1ccc2c(c1)CCN(c1nc3ccccc3[nH]1)C2 [Compound 50-5],"HDAC11 potency, in words",full-length human HDAC11 [1],loss of HD AC 11 potency
same,IC50,full-length human HDAC11 [1]; [5],> 2000 nM
same,IC50,HDAC6; [6],< 500 nM
"Cc1nc(N2Cc3cccc(C(=O)NO)c3C2)[nH]c1C.Cl [Compound 1-2, 2-(4,5-dimethyl-1H-imidazol-2-yl)-N-hydroxyisoindoline-4-carboxamide hydrochloride]",IC50,full-length human HDAC11 [3],> 1000 nM
same,"HDAC11 potency, in words",full-length human HDAC11 [1],loss of potency
same,IC50,"full-length human HDAC11 [1]; Table 5, read-out: HDAC11 IC50",> 1000 nM
same,microsomal CLint,[2]; Table 5,51 to 100 µL/min/mg
same,"microsomal stability, in words",[2],loss of potency and microsomal stability
same,LipE,HDAC11; [8],++ (indicates 5.5<LipE≤6.5)
"O=C(NO)c1cccc2c1CN(c1nc3ccccc3s1)C2 [Compound 7-4, 2-(benzo[d]thiazol-2-yl)-N-hydroxyisoindoline-4-carboxamide]",IC50,full-length human HDAC11 [3],< 500 nM
same,"HDAC11 potency, in words",full-length human HDAC11 [1],improved potency
same,IC50,"full-length human HDAC11 [1]; Table 5, read-out: HDAC11 IC50",< 500 nM
same,microsomal CLint,[2]; Table 5,> 100 µL/min/mg
same,"microsomal stability, in words",[2],significant loss of microsomal stability
same,LipE,HDAC11; [8],+ (indicates LipE≤5.5)
"O=C(NO)c1cccc2c1CN(c1ccc(C(F)(F)F)cn1)C2 [Compound 45-1, N-hydroxy-2-(5-(trifluoromethyl)pyridin-2-yl)isoindoline-4-carboxamide]",IC50,full-length human HDAC11 [3],< 500 nM
same,"HDAC11 potency, in words",full-length human HDAC11 [1],improved potency
same,IC50,"full-length human HDAC11 [1]; Table 5, read-out: HDAC11 IC50",< 500 nM
same,microsomal CLint,[2]; Table 5,51 to 100 µL/min/mg
same,"microsomal stability, in words",[2],significant loss of microsomal stability
same,LipE,HDAC11; [8],++ (indicates 5.5<LipE≤6.5)
O=C(NO)c1ccc2c(c1)CN(c1nc3ccccc3[nH]1)CC2 [Compound 50-4],IC50,full-length human HDAC11 [1]; [5],> 2000 nM
same,IC50,HDAC6; [6],< 500 nM
"O=C(NO)c1cccc2c1CN(c1nc3ccccc3o1)C2 [Compound 15-1, 2-(benzo[d]oxazol-2-yl)-N-hydroxyisoindoline-4-carboxamide]",IC50,full-length human HDAC11 [3],< 500 nM
same,"HDAC11 potency, in words",full-length human HDAC11 [1],improved potency
same,IC50,"full-length human HDAC11 [1]; Table 5, read-out: HDAC11 IC50",< 500 nM
same,microsomal CLint,[2]; Table 5,> 100 µL/min/mg
same,"microsomal stability, in words",[2],significant loss of microsomal stability
same,LipE,HDAC11; [8],+++ (indicates a LipE>6.5)
"O=C(NO)c1cccc2c1CN(c1nc3ccc(C(F)(F)F)cc3[nH]1)C2 [Compound 12-1, N-hydroxy-2-(6-(trifluoromethyl)-1H-benzo[d]imidazol-2-yl)isoindoline-4-carboxamide]",IC50,full-length human HDAC11 [3],< 500 nM
same,"HDAC11 potency, in words",full-length human HDAC11 [1],significant increase in both potency and LipE
same,IC50,"full-length human HDAC11 [1]; Table 5, read-out: HDAC11 IC50",< 500 nM
same,microsomal CLint,[2]; Table 5,> 100 µL/min/mg
same,"microsomal stability, in words",[2],loss of microsomal stability
same,LipE,HDAC11; [8],++ (indicates 5.5<LipE≤6.5)
"CC1(C)c2cccc(C(=O)NO)c2CN1C(=O)Nc1cc(C(F)(F)F)ccn1 [Compound 30-5, N4-hydroxy-1,1-dimethyl-N2-(4-(trifluoromethyl)pyridin-2-yl)isoindoline-2,4-dicarboxamide]",IC50,full-length human HDAC11 [3],< 500 nM
"O=C(NO)c1cccc2c1CN(c1nc3c([nH]1)CNCC3)C2 [Compound 13-1, N-hydroxy-2-(4,5,6,7-tetrahydro-3H-imidazo[4,5-c]pyridin-2-yl)isoindoline-4-carboxamide]",IC50,full-length human HDAC11 [3],> 1000 nM
